The values below come from US8258098B2, “Antitumoral treatments” (Pharma Mar, S.A., priority 2006, dated 2012).

One assay has as its system UACC-257 cells. The assay can be described thus: MTS assay Example 2, single agents and combinations. The format is cell-based. The conditions noted are these: UACC-257, MTS; read-out: IC50 (Molar). As to the method: (§1) The day before plating cells all cultures were fed with fresh, complete growth media. On the harvest (plating) day cells were counted by Trypan Blue exclusion staining method.
(§2) Cells were harvested and seeded in 96 well microtiter plates at 15,000 cells per well in 190 μl of media and incubated for 24 hours to allow the cells to attach before drug addition.
(§3) The cytotoxic effect was measured by the MTS Assay (Tetrazolium), which is a colorimetric method for determining the number of viable cells.
(§4) After 72 hours of incubation with tested agents 25 μl of MTS+PMS solution was added to each microtiter well and incubated for 4 hours at 37° C. Plates were then removed from incubator and placed on plate shaker for 5 minutes (covered with aluminum foil for protection from light). Optical densities were read at 490 nm on spectrophotometer plate reader. Data was analyzed as: • 1. Prism (Graphpad) software program was used to normalized the data to control values (100%=cell growth in the absence of agent (drug); 0%=blank control). • 2. Data normalized were plotted as scatter plots.
(§5) Conversely, antagonism was concluded when inhibition was lower than both maxima. […] Statistical significance was assessed by performing a student's t-test on the inhibition at each dose ratio versus the inhibition at the maximum for each drug.
(§6) As a visual aid, response values were plotted on a scatter plot with dose ratios given on the x-axis and % response values on the y-axis. […] In cases where response values at the two endpoints were approximately equivalent, points lying above or below this predicted line of additivity could be interpreted as representing antagonistic or synergistic drug interaction respectively.

The test system of a further assay is LOXIMVI cells. The description is as above. It counts as cell-based. The conditions noted are these: read-out: IC50 (Molar). As to the method: as §1, §2, §3, §4, §5, §6
Assay [1] concerns LOX-IMVI melanoma tumor xenografts. The assay is described as follows: Net tumor volume in tumor xenografts. It counts as in vivo, female athymic mice. The conditions noted are these: DTIC 30 mg/kg, Carboplatin 25 mg/kg, i.p. An excerpt: (§7) Athymic nude female mice were received from Harlan Sprague Dawley, Madison, Wis. at 4-5 weeks of age. Mice were acclimated to the laboratory for at least one week prior to implantation of tumor. Animals were housed in static cages with food and water allowed ad libitum. Experimental animals were implanted with either tumor fragments derived from transplantation established human tumors or with cells obtain directly from in vitro culture. Tumors were implanted subcutaneously on the right flank on Day 0.
(§8) Tumor size measurements were recorded twice weekly beginning on day 4 or 5 using vernier calipers. The formula to calculate volume for a prolate ellipsoid was used to estimate tumor volume from 2-dimensional tumor measurements: tumor volume (mm^3)=(length×width^2)÷2. Assuming unit density, volume was converted to weight (i.e., 1 mm^3=1 mg). […] Treatments were initiated and administered on an individual body weight basis. A dose range finding study was performed on each tumor model to determine the appropriate dose level of each compound used in the combination studies.

Assay [2] relates to MRI-H187 melanoma tumor xenografts. The assay is described as follows: Net tumor volume in tumor xenografts. It counts as in vivo, female athymic mice. The conditions noted are these: Aplidine 50 μg/kg, DTIC 40 mg/kg, Carboplatin 25 mg/kg, i.p.
Text: as §7, §8

Assay [3] relates to UACC-257 human melanoma cells. The assay can be described thus: Antitumor efficacy against subcutaneous-implanted melanoma xenograft. The format is in vivo, female, athymic NCr-nu/nu mice. The conditions noted are these: UACC-257 xenograft, median tumor weight; Aplidine 60 μg/kg/dose IP q1d × 9, Carboplatin 50 mg/kg/dose IV q4d × 3. The protocol:
The animals were housed in microisolator cages, up to five per cage in a 12-hour light/dark cycle. Six-weeks-old female, athymic NCr-nu/nu mice were acclimated in the laboratories for one week prior to the experiment.
Each mouse was inoculated subcutaneously near the right flank with UACC-257 human melanoma cells from an in vitro cell culture using a 23-gauge needle. Each mouse received 2×10^7 cells resuspended in 0.2 mL of Matrigel®. A vial with UACC-257 human melanoma frozen cells was thawed and cultured in RPMI 1640 medium containing low glucose (2,000 mg/L), sodium bicarbonate ([…]), 2 mM L-glutamine, and 10% fetal bovine serum (complete medium), and grown in a +37° C. incubator in a humidified atmosphere with 5% CO2 until the necessary number of cells for inoculation of mice was obtained. Cells were harvested after four passages in culture. […] The cell count and viability were determined with a Beckman Coulter VI CELL XR cell counter and viability analyzer. […]
Animals were observed daily and clinical signed were noted. The s.c. tumors were measured and the animals were weighed twice weekly starting with the first day of treatment, Day 13. Tumor volume was determined by caliper measurements (mm) and using the formula for an ellipsoid sphere: L×W^2/2=mm^3, where L and W refer to the larger and smaller perpendicular dimensions collected at each measurement. […]

What is called IC50 is the concentration that inhibits the measured activity by half. As for `N.N.O=C([O-])C1(C(=O)[O-])CCC1.[Pt+2]` [carboplatin], the results for the 50% inhibitory concentration (IC50) in the assay with UACC-257 cells and in the assay on LOXIMVI cells were 170 µM and 120 µM, respectively. Besides, the “Net Tumor Volume ± S.E.M.” value in assay [1] (DAY 6, Aplidine 50 μg/kg) is reported as 107 ± 3 mg; in assay [1] (DAY 8, Aplidine 50 μg/kg) it was 347 ± 43 mg; in assay [1] (DAY 12, Aplidine 50 μg/kg), 1167 ± 117 mg; in assay [1] (DAY 14, Aplidine 50 μg/kg), 2936 ± 543 mg; in assay [1] (DAY 19, Aplidine 50 μg/kg), 4598 ± 1182 mg; in assay [2] (MRI-H187, DAY 24), 213 ± 32 mg. Moreover, the “Net Tumor Volume ± S.E.M.” value is listed as 301 ± 50 mg in assay [2] (MRI-H187, DAY 27); 540 ± 99 mg in assay [2] (MRI-H187, DAY 34); 793 ± 132 mg in assay [2] (MRI-H187, DAY 38); 917 ± 138 mg in assay [2] (MRI-H187, DAY 41); 1303 ± 237 mg in assay [2] (MRI-H187, DAY 46); 1603 ± 288 mg in assay [2] (MRI-H187, DAY 52). Also, the “Net Tumor Volume ± S.E.M.” value was found to be 1989 ± 373 mg in assay [2] (MRI-H187, DAY 55); 2292 ± 487 mg in assay [2] (MRI-H187, DAY 59); 2659 ± 492 mg in assay [2] (MRI-H187, DAY 62); 2723 ± 519 mg in assay [2] (MRI-H187, DAY 66). The “% T/C on day 23” value in assay [3] amounted to 95%. The “% T/C on day 70” value in assay [3] was 60%.
